# Measurements as given in publication PMC8877061, “Antifungal and Antibiofilm Activity of Cyclic Temporin L Peptide Analogues against Albicans and Non-Albicans Candida Species” (Pharmaceutics, 2022).
# Like-named read-outs stand apart in the source and are kept apart here. Positions of bridges follow the written chain, without caps; N, C: chain ends. Non-standard residues stand in square brackets, D forms with d. Residues, ends and D or L forms follow the SMILES beside them. Triazole bridges read from a SMILES are 1,4-linked. Lys(N3) = [N-]=[N+]=NCCCC[C@H](N)C(=O)O; Pra = C#CC[C@H](N)C(=O)O
# Assays:
# C. albicans cells = test: Zeta potential of fungal cells by dynamic light scattering; type: cell-based; design: Calculated Zeta Potential: unit not given here; details: for Experimental Zeta Potential (ς): C. albicans cells after peptide 25 μM, PBS 0.001×, electrophoretic light scattering; for Calculated Zeta Potential: theoretical: charge of the peptide added to the zeta potential of the C. albicans cells
# Method: The zeta potential of the fungal cells was recorded in a suspension (0.5 × 10^6 cells/mL) using the electrophoretic light scattering technique on a Zetasizer Nano ZS analyzer. Before the peptide treatment, the cells were suspended using a 0.05% trypsin solution in 0.53 mM EDTA. The concentration of the suspended cells in a buffered phosphate saline (PBS, 1.7 mM KH2PO4, 5.2 mM Na2HPO4 and 150 mM NaCl) was determined on a hemocytometer. The measurements were performed by diluting the cells with PBS 0.001× and treating them with the peptide at a concentration of 25 μM.
# [1] = system: G. mellonella larvae infected by different Candida species; test: G. mellonella fungal infection model (Kaplan-Meier survival); type: in vivo; details: for in vivo effectiveness on infected G. mellonella larvae: 10^6 yeast cells with 12.5 μM peptide, 10 μL injected, 37 °C, different Candida species
# Method: The G. mellonella fungal infection model was performed as described previously. We first determined the lethal concentrations of C. albicans, C. auris, C. glabrata, C. tropicalis and C. parapsilosis inocula by injecting concentrations of 10^4, 10^5 or 10^6 cells/larvae. The larvae were kept in Petri dishes at 37 °C, and survival was monitored for 3 d. A system of scoring already proposed by Loh et al. based on survival, mobility, degree of melanization, and the ability to produce a cocoon was used to evaluate the physical state of the larvae for 3 days. To evaluate the effects of the five peptides on Candida infection and compare mortality, 10 μL of 10^6 yeast cells in a medium containing 12.5 μM of each peptide’s concentrations was injected into the last left proleg of the larvae and incubated at 37 °C. The larvae were incubated at 37 °C and monitored daily for survival.
# C. parapsilosis DSM 5784 = type: cell-based; details: DSM 5784, 24 h
# C. glabrata DSM 11226 = type: cell-based
# Method: (§1) C. albicans ATCC 90028, C. auris DSM 21092, C. glabrata DSM 11226, C. tropicalis DSM11951 and C. parapsilosis DSM 4874 grown on YPD Agar (1% w/v yeast extract, 2% w/v peptone, 2% w/v glucose, 1.5% Agar) were cultured in Tryptone soya broth supplemented with 0.1% glucose for 16–18 h at 37 °C, washed twice using sterile phosphate-buffered saline (PBS) and standardized to […] as required for the experiments. RPMI1640 medium (Thermo Fisher Scientific, Waltham, MA, USA) buffered to a pH of 7.0 with 0.165 M MOPS was used for growing the biofilms of all Candida species.
# (§2) The antifungal activity of peptides against all five Candida species was determined according to CLSI-M27-A3 [33], as reported previously. Briefly, the compounds were tested at concentrations ranging from […] to 50 μM, and the organism suspensions were adjusted to an inoculum of 10^6 cell/mL at OD 590 nm in RPMI 1640, added to the 96-well plate and incubated at 37 °C for 24 h. The minimum inhibitory concentration (MIC) values were determined as the lowest concentration inhibiting fungal growth at 590 nm using a microplate reader (Synergy™ H4; BioTek Instruments, Inc., Winooski, VT, USA). […] The MFC was the lowest concentration that yielded no colony growth on the agar. The MFC/MIC ratio was calculated to determine whether the substance had fungistatic (MFC/MIC ≥ 4) or fungicidal (MFC/MIC < 4) activity.
# C. tropicalis DSM 11951 = type: cell-based
# Method: as §1, §2
# C. auris DSM 21092 = type: cell-based; details: DSM 21092, 24 h
# Method: as §1, §2
# [2] = Peptide aggregation by Thioflavin T fluorescence in LUVs; type: physicochemical; details: LUVs PE/PC/PI/ergosterol 0.1 mM, Tris-HCl/NaCl pH 7.4, 25 °C, titrated 5-50 μM peptide
# Method: The aggregation in the liposomes mimicking fungal membranes (5:4:1:2, w/w/w/w) was evaluated using Thioflavin T (ThT) as a dye probe. The lipid film was prepared by dissolving lipids in chloroform to have a final lipid concentration of 0.1 mM. Then, the solvent was removed under a nitrogen gas stream, and the film was freeze-dried overnight. Lipid films were hydrated with 100 mM NaCl, 10 mM Tris-HCl and a […] ThT buffer at a pH of 7.4 and then treated as described above to obtain LUVs. The LUVs were titrated with a peptide concentration of 5, 10, 15, 20, 30 and 50 μM, and ThT fluorescence was recorded before and after the addition of the peptide using the Varian Cary Eclipse fluorescence spectrometer at 25 °C. The samples were excited at 450 nm (slit width: 10 nm), and the fluorescence emission was recorded at 482 nm (slit width: 5 nm). Aggregation was quantified according to the equation %A = (Ff − F0)/(Fmax − F0) × 100, where Ff indicates the value of fluorescence after the peptide addition, F0 is the initial fluorescence before the addition of the peptide and Fmax is the fluorescence maximum obtained immediately after the peptide addition.
# G. mellonella larvae = details: in vivo
# Method: Twenty larvae with an average weight of 180–200 mg were used in each group in all assays with 2 control groups; one group was inoculated with PBS, while the other group received no injection as a control to evaluate general viability. A volume of 10 µL of each peptide at different concentrations (12.5, 25.0, and 50.0 µM) was inoculated in each group. All larvae were incubated at 37 °C and monitored daily for survival for 4 days in 3 independent experiments.
# C. albicans ATCC 90028 = type: cell-based; details: ATCC 90028, 24 h
# Method: as §1, §2
# [3] = CLSI-M27-A3, RPMI 1640, 10^6 cell/mL, 37 °C, 24 h, read at 590 nm
SMILES,Experimental Zeta Potential (ς) (C. albicans cells),Calculated Zeta Potential (C. albicans cells),"survival rate of infected larvae ([1]; 12.5 μM, larvae infected by all strains, after 48 h)",in vivo effectiveness on infected G. mellonella larvae [1],"MFC, C. parapsilosis DSM 5784 (C. parapsilosis DSM 5784)","MFC, C. glabrata DSM 11226 (C. glabrata DSM 11226; DSM 11226, 24 h)","MIC, C. glabrata DSM 11226 (C. glabrata DSM 11226; DSM 11226, 24 h)","MFC, C. tropicalis DSM 11951 (C. tropicalis DSM 11951; DSM 11951, 24 h)","MIC, C. tropicalis DSM 11951 (C. tropicalis DSM 11951; DSM 11951, 24 h)","MFC, C. auris DSM 21092 (C. auris DSM 21092)","MIC, C. auris DSM 21092 (C. auris DSM 21092)",concentration of complete aggregation (ThT fluorescence) [2],toxicity in G. mellonella larvae at 50 μM (G. mellonella larvae),"MFC, C. albicans ATCC 90028 (C. albicans ATCC 90028)","MIC, C. glabrata DSM 11226 (C. glabrata DSM 11226; [3])","MIC, C. tropicalis DSM 11951 (C. tropicalis DSM 11951; [3])"
CC[C@H](C)[C@H](NC(=O)[C@H](CCCNC(=N)N)NC(=O)[C@@H]1CCC(=O)NCCCC[C@H](NC(=O)[C@H](Cc2ccccc2)NC(=O)[C@H](Cc2c[nH]c3ccccc23)NC(=O)[C@@H]2CCCN2C(=O)[C@@H](NC(=O)[C@@H](N)Cc2ccccc2)C(C)C)C(=O)N[C@@H](CCCCN)C(=O)N[C@@H](Cc2ccccc2)C(=O)N[C@H](CC(C)C)C(=O)N1)C(=O)N[C@@H](CC(C)C)C(N)=O [compound 3] (H-FVPWFKKF[dL]ERIL-NH2; lactam 6-10; N-terminus assumed),1.6 ± 0.3 mV,−3.2 ± 0.5,increased the survival rate,in vivo effectiveness,50 µM,50 µM,50 µM,50 µM,50 µM,50 µM,50 µM,,,,,
CC(C)C[C@H](NC(=O)[C@@H]1CCCCn2cc(nn2)C[C@H](NC(=O)[C@H](CCCCN)NC(=O)[C@H](CO)NC(=O)[C@H](Cc2ccccc2)NC(=O)[C@H](Cc2c[nH]c3ccccc23)NC(=O)[C@@H]2CCCN2C(=O)[C@@H](NC(=O)[C@@H](N)Cc2ccccc2)C(C)C)C(=O)N[C@H](CC(C)C)C(=O)NCC(=O)N[C@@H](CCCNC(=N)N)C(=O)N1)C(N)=O [compound 7] (H-FVPWFSK[Pra][dL]GR[Lys(N3)]L-NH2; triazole 8-12; N-terminus assumed),−4.5 ± 1.6 mV,−3.2 ± 0.5,,in vivo effectiveness,50 µM,50 µM,50 µM,50 µM,50 µM,>50 µM,50 µM,30 µM,,,,
CC[C@H](C)[C@H](NC(=O)[C@H](CCCNC(=N)N)NC(=O)[C@@H]1CCCCNC(=O)CC[C@H](NC(=O)[C@H](Cc2ccccc2)NC(=O)[C@H](Cc2c[nH]c3ccccc23)NC(=O)[C@@H]2CCCN2C(=O)[C@@H](NC(=O)[C@@H](N)Cc2ccccc2)C(C)C)C(=O)N[C@@H](CCCCN)C(=O)N[C@@H](Cc2ccccc2)C(=O)N[C@H](CC(C)C)C(=O)N1)C(=O)N[C@@H](CC(C)C)C(N)=O [compound 15] (H-FVPWFEKF[dL]KRIL-NH2; lactam 6-10; N-terminus assumed),13.5 ± 3.4 mV,−3.2 ± 0.5,,in vivo effectiveness,50 µM,>50 µM,50 µM,>50 µM,50 µM,>50 µM,50 µM,,greater toxicity,> 50 µM,,
CC[C@H](C)[C@H](NC(=O)[C@H](CCCNC(=N)N)NC(=O)[C@@H]1CSSC[C@H](NC(=O)[C@H](Cc2ccccc2)NC(=O)[C@H](Cc2c[nH]c3ccccc23)NC(=O)[C@@H]2CCCN2C(=O)[C@@H](NC(=O)[C@@H](N)Cc2ccccc2)C(C)C)C(=O)N[C@@H](CCCCN)C(=O)N[C@@H](Cc2ccccc2)C(=O)N[C@H](CC(C)C)C(=O)N1)C(=O)N[C@@H](CC(C)C)C(N)=O [compound 16] (H-FVPWFCKF[dL]CRIL-NH2; disulfide 6-10; N-terminus assumed),−6.5 ± 0.2 mV,−3.2 ± 0.5,,in vivo effectiveness,>50 µM,50 µM,,50 µM,,>50 µM,50 µM,,,>50 µM,25 µM,25 µM
